Experimental data as given in patent US11759451B2, “Therapeutic potential of glycopyrrolate and mexiletine for nervous system injury” (City University of Hong Kong, priority 2020, dated 2023).
Entries after “also recorded” stand apart in the source; their conditions may differ.

What was measured:
[1] = test system: sciatic nerve crush injury; assay: sciatic nerve pinch test after sciatic nerve crush injury; assay type: in vivo, adult male C57BL/6 mice; details: for increase of the most distal axonal regrowth (sciatic nerve pinch test): i.p. glycopyrrolate 2 mg/kg or mexiletine 10 mg/kg for 3 consecutive days after injury, 72 hours after crush, n=5-6 per group; for in vivo axon regeneration after sciatic nerve crush injury (pinch test), in words: i.p. glycopyrrolate 2 mg/kg or mexiletine 10 mg/kg, 3 days after injury
Description: (§1) (A) Experimental paradigm for sciatic nerve pinch test. Sciatic nerve crush injury was performed on the left sciatic nerve of adult male C57BL/6 mice. We performed nerve pinch test in adult mice injected intraperitoneally with glycopyrrolate (2 mg/kg) or mexiletine (10 mg/kg) for 3 consecutive days after injury. […] Scale bar: 100 μm. Mean±SEM; *P<0.05, Student's t-test.
(§2) In the current project, a sciatic nerve crush injury was used as an in vivo animal model for peripheral nerve injury. Adult male C57BL/6 mice (8-12 weeks old) were used for all experiments. All mouse husbandry and euthanasia were in compliance with the Institutional Animal Care and Use Committee (IACUC) guidelines. Surgical procedures performed were in accordance with protocols approved by the City University of Hong Kong Animal Research Ethics Sub-Committee and Department of Health, Hong Kong SAR. Under anesthesia, the left sciatic nerve was exposed, and crushed with 5/45 smooth forceps (Fine Science Tools) for 15 seconds at the level of external rotator muscles, distal to the sciatic notch after separation from the surrounding connective tissue (FIG. 2).
(§3) Glycopyrrolate or mexiletine was first dissolved in 0.9% saline, and injected intraperitoneally immediately after sciatic nerve crush injury for 3 consecutive days at 2 mg/kg and 10 mg/kg, respectively (FIGS. 3A and B).
(§4) The extent of axon regeneration was evaluated using sciatic nerve pinch test, and verified by quantifications of GAP-43-positive regenerating axonal fibres 72 hours after sciatic nerve crush injury.
Sciatic nerve pinch test was performed on the ipsilateral nerves 72 hours after sciatic nerve crush injury. The left sciatic nerve was first exposed to mid-thigh level under deep anaesthesia (i.e. 2.5% isoflurane). Under light anaesthesia (i.e. 1% isoflurane), a series of pinches were applied from the most distal part of the nerve (i.e. trifurcation), moving proximally towards the crushed site using smooth forceps (Fine Science Tools). The distance (in mm) representing the extent of axonal regrowth was recorded from the crushed site to the most distal point of the nerve where initial withdrawal response was observed after pinching (FIGS. 4A and C).

[2] = test system: axotomized dorsal root ganglion (DRG) neurons; assay: neurite outgrowth assay in primary cultures of axotomized DRG neurons; assay type: cell-based, adult C57BL/6 mice; details: vs 0.1% DMSO solvent control; for average total neurite length (neurite outgrowth): glycopyrrolate 5, 10 and 100 μM or mexiletine 10, 50 and 100 μM added 1 h after plating, 17 h growth; for cell survival of DRG neurons: same cultures, 17 h
Description: Primary cultures of DRG neurons were prepared from adult C57BL/6 mice, and plated onto a poly-D-lysine and laminin-coated 8-well chamber. Glycopyrrolate and mexiletine were added into the cultured DRG neurons at various concentrations as indicated one hour after plating. 0.1% DMSO served as solvent control. The cultures were allowed to grow for 17 h. After fixation, the DRG neurons were immunostained with anti-βIII-tubulin primary antibodies highlighting the cell bodies of DRG neurons and their adjacent neurites for neurite outgrowth assay. (A) Average total neurite length was quantified using automated WIS-NeuroMath 5 software. […] Scale bar: 500 μm.
In the current study, the intrinsic growth capacity of peripheral neurons was first assessed, which is a critical determinant for successful axon regeneration after injury, after treating the neurons with glycopyrrolate and mexiletine. Primary culture of adult dorsal root ganglion (DRG) neurons is a widely used in vitro models to assess cues that could promote axonal outgrowth. Primary DRG neurons were prepared from adult C57BL/6 mice (8-12 weeks old). DRG neurons were dissected out, mildly digested with a solution of collagenase and dispase II (Roche Diagnostics), trypsinized and mechanically dissociated into single cell suspension using flame-polished Pasteur pipettes with three different diameters. Two thousand DRG neurons were plated onto an 8-well chamber slide pre-coated with poly-D-lysine and laminin (Sigma Aldrich), and cultured in full Neurobasal medium (Gibco) supplemented with B27, 200 mM L-glutamine, penicillin-streptomycin, 50 ng/ml NGF (Gibco), 10 μM Ara-C and 2 ng/ml GDNF (Gibco). Glycopyrrolate (5, 10 and 100 μM) or mexiletine (10, 50 and 100 μM) was added into the cultured neurons 1 hour after plating, and the cultures were allowed to grow for 17 hours.
After 17 hours of incubation, the cultures were fixed with 4% paraformaldehyde (PFA), blocked with 0.5% bovine serum albumin (BSA)/0.1% Triton X-100 in PBS for 1 hour at room temperature, and incubated with anti-β III-tubulin primary antibodies (1:800, Sigma Aldrich) for overnight at 4° C. After washing with PBS, the cultures were incubated with Alexa Fluor 488-conjugated secondary antibodies (1:300, Molecular Probes) for 1 hour at room temperature. To assess the neurite outgrowth of axtomized DRG neurons after treatment of glycopyrrolate or mexiletine, 30 non-overlapping images were taken at 10× magnifications using Nikon Ni-E microscope equipped with a motorized stage. Total neurite length of individual DRG neurons from each treatment condition were measured by automated WIS-NeuroMath software (Weizmann Institute of Science). The total neurite length of the neurons was averaged from at least 250 neurons per condition. […]

[3] = test system: sciatic nerve crush injury; details: 72 hours after crush; for increase in number of GAP43-positive regenerating axons: i.p. glycopyrrolate 2 mg/kg or mexiletine 10 mg/kg for 3 days, 4 mm distal to the crushed site, n=3 per group; for GAP-43-positive regenerating axonal fibres at 4 mm distal to the crushed site, in words: i.p. glycopyrrolate 2 mg/kg or mexiletine 10 mg/kg
Description: as §1, §2, §3, §4

M1-M3 mAChRs = details: background description of the drug; cited from earlier work

For `Cc1cccc(C)c1OCC(C)N` (stereo not shown) [mexiletine], the “increase of the most distal axonal regrowth (sciatic nerve pinch test)” value [1] was 59%, the “in vivo axon regeneration after sciatic nerve crush injury (pinch test), in words” value [1] was “markedly accelerated in vivo axon regeneration; also recorded: significantly enhanced axon regeneration” and the “average total neurite length (neurite outgrowth)” value [2] was “induced robust neurite extension; also recorded: induce substantial neurite outgrowth”. The “cell survival of DRG neurons” value [2] was “did not exhibit any effects on cell survival; also recorded: without exerting any neuronal survival effects”, the “increase in number of GAP43-positive regenerating axons” value [3] was 67% and the “GAP-43-positive regenerating axonal fibres at 4 mm distal to the crushed site, in words” value [3] was “More GAP-43-positive regenerating axonal fiber were observed”.
With `C[N+]1(C)CCC(OC(=O)C(O)(c2ccccc2)C2CCCC2)C1` (stereo not shown) [glycopyrrolate] the “increase of the most distal axonal regrowth (sciatic nerve pinch test)” value [1] was 61%, the “in vivo axon regeneration after sciatic nerve crush injury (pinch test), in words” value [1] was “markedly accelerated in vivo axon regeneration; also recorded: significantly enhanced axon regeneration” and the “average total neurite length (neurite outgrowth)” value [2] was “induced robust neurite extension; also recorded: induce substantial neurite outgrowth”. The “cell survival of DRG neurons” value [2] was “did not exhibit any effects on cell survival; also recorded: without exerting any neuronal survival effects”, the “increase in number of GAP43-positive regenerating axons” value [3] was 73% and the “GAP-43-positive regenerating axonal fibres at 4 mm distal to the crushed site, in words” value [3] was “More GAP-43-positive regenerating axonal fiber were observed”. The “selectivity among mAChR subtypes” value (M1-M3 mAChRs) was “no selectivity to M1-M3 mAChRs”.
